Experimental data as given in paper PMC6979384, “Characterization of the plant homeodomain (PHD) reader family for their histone tail interactions” (Epigenetics & Chromatin, 2020).

Assays:
Test in all cases: Histone peptide microarray
Assay type in all cases: binding, human
[1] = tested on: AIRE (PP); conditions: AIRE (PP); sheet "Array Heatmap"; each array performed twice, total n = 4
Summary of the method: (§1)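 Using an optimized microarray protocol, purified GST-tagged PHD fingers were incubated at 0.5 μM on 293 histone peptides with single or multiple modifications, and array signal was recorded as the average of 4 replicates.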

[2] = tested on: CHD5 (PPCC); conditions: CHD5 (PPCC); sheet "Array Heatmap"; each array performed twice, total n = 4
Summary of the method: as §1

[3] = tested on: PHRF1 (RP); conditions: PHRF1 (RP); sheet "Array Heatmap"; each array performed twice, total n = 4
Summary of the method: as §1

[4] = tested on: RAG2; conditions: RAG2; sheet "Array Heatmap"; each array performed twice, total n = 4
Summary of the method: as §1

[5] = tested on: ING1; conditions: ING1; sheet "Array Heatmap"; each array performed twice, total n = 4
Summary of the method: as §1

[6] = tested on: KDM4C (TTP); conditions: KDM4C (TTP); sheet "Array Heatmap"; each array performed twice, total n = 4
Summary of the method: as §1

[7] = tested on: TAF3; conditions: TAF3; sheet "Array Heatmap"; each array performed twice, total n = 4
Summary of the method: as §1

[8] = tested on: PHF13; conditions: PHF13; sheet "Array Heatmap"; each array performed twice, total n = 4
Summary of the method: as §1

[9] = tested on: DPF2 (PPC2W2); conditions: DPF2 (PPC2W2); sheet "Array Heatmap"; each array performed twice, total n = 4
Summary of the method: as §1

[10] = tested on: KDM5B (1); conditions: KDM5B (1); sheet "Array Heatmap"; each array performed twice, total n = 4
Summary of the method: as §1

[11] = tested on: KDM5A (1); conditions: KDM5A (1); sheet "Array Heatmap"; each array performed twice, total n = 4
Summary of the method: as §1

[12] = tested on: KDM5B (3); conditions: KDM5B (3); sheet "Array Heatmap"; each array performed twice, total n = 4
Summary of the method: as §1

[13] = tested on: PHF2; conditions: PHF2; sheet "Array Heatmap"; each array performed twice, total n = 4
Summary of the method: as §1

[14] = tested on: SP140L; conditions: SP140L; sheet "Array Heatmap"; each array performed twice, total n = 4
Summary of the method: as §1

[15] = tested on: PHF23; conditions: PHF23; sheet "Array Heatmap"; each array performed twice, total n = 4
Summary of the method: as §1

[16] = tested on: CHD5 (PCC); conditions: CHD5 (PCC); sheet "Array Heatmap"; each array performed twice, total n = 4
Summary of the method: as §1

[17] = tested on: ING4; conditions: ING4; sheet "Array Heatmap"; each array performed twice, total n = 4
Summary of the method: as §1

[18] = tested on: ING3; conditions: ING3; sheet "Array Heatmap"; each array performed twice, total n = 4
Summary of the method: as §1

[19] = tested on: MLL5; conditions: MLL5; sheet "Array Heatmap"; each array performed twice, total n = 4
Summary of the method: as §1

[20] = tested on: KDM5A (3); conditions: KDM5A (3); sheet "Array Heatmap"; each array performed twice, total n = 4
Summary of the method: as §1

[21] = tested on: MORC3 (CW); conditions: MORC3 (CW); sheet "Array Heatmap"; each array performed twice, total n = 4
Summary of the method: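 Each reader, produced as a GST fusion and purified, was tested at 0.5 μM on synthetic histone peptides (293 in total) carrying single or combinatorial marks. Intensities averaged over four replicates.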

[22] = tested on: ING2; conditions: ING2; sheet "Array Heatmap"; each array performed twice, total n = 4
Summary of the method: as §1

[23] = tested on: ING5; conditions: ING5; sheet "Array Heatmap"; each array performed twice, total n = 4
Summary of the method: as §1

[24] = tested on: DIDO1; conditions: DIDO1; sheet "Array Heatmap"; each array performed twice, total n = 4
Summary of the method: as §1

[25] = tested on: KDM7A; conditions: KDM7A; sheet "Array Heatmap"; each array performed twice, total n = 4
Summary of the method: as §1

[26] = tested on: PHF21A; conditions: PHF21A; sheet "Array Heatmap"; each array performed twice, total n = 4
Summary of the method: as §1

[27] = tested on: CHD4 (PPCC); conditions: CHD4 (PPCC); sheet "Array Heatmap"; each array performed twice, total n = 4
Summary of the method: as §1

[28] = tested on: TRIM66 (PB); conditions: TRIM66 (PB); sheet "Array Heatmap"; each array performed twice, total n = 4
Summary of the method: as §1

[29] = tested on: BPTF (PB); conditions: BPTF (PB); sheet "Array Heatmap"; each array performed twice, total n = 4
Summary of the method: as §1

[30] = tested on: PHF8; conditions: PHF8; sheet "Array Heatmap"; each array performed twice, total n = 4
Summary of the method: as §1

[31] = tested on: BAZ2B; conditions: BAZ2B; sheet "Array Heatmap"; each array performed twice, total n = 4
Summary of the method: as §1

Row | Substance | Array Heatmap value (peptide array signal) [1] | Array Heatmap value (peptide array signal) [2] | Array Heatmap value (peptide array signal) [3] | Array Heatmap value (peptide array signal) [4] | Array Heatmap value (peptide array signal) [5] | Array Heatmap value (peptide array signal) [6] | Array Heatmap value (peptide array signal) [7] | Array Heatmap value (peptide array signal) [8] | Array Heatmap value (peptide array signal) [9] | Array Heatmap value (peptide array signal) [10] | Array Heatmap value (peptide array signal) [11] | Array Heatmap value (peptide array signal) [12] | Array Heatmap value (peptide array signal) [13] | Array Heatmap value (peptide array signal) [14] | Array Heatmap value (peptide array signal) [15] | Array Heatmap value (peptide array signal) [16] | Array Heatmap value (peptide array signal) [17] | Array Heatmap value (peptide array signal) [18] | Array Heatmap value (peptide array signal) [19] | Array Heatmap value (peptide array signal) [20] | other results
1 | H3K9pro: H3 1-20 [Peptide H3K9pro] | 0.411 | 0.5229 | 0.5869 | 0.2419 | 0.5254 | 0.4589 | 0.2557 | 0.5854 | 0.7007 | 0.6726 | 0.4409 | 0.4382 | 0.4692 | 0.3673 | 0.5285 | 0.7611 | 0.4451 | 0.4734 | 0.5292 | 0.4398 | Array Heatmap value (peptide array signal) [21]: 0.4445; Array Heatmap value (peptide array signal) [22]: 0.6039; Array Heatmap value (peptide array signal) [23]: 0.3309; Array Heatmap value (peptide array signal) [24]: 0.6439; Array Heatmap value (peptide array signal) [25]: 0.3118; Array Heatmap value (peptide array signal) [26]: 0.4435; Array Heatmap value (peptide array signal) [27]: 0.5901; Array Heatmap value (peptide array signal) [28]: 0.5807; Array Heatmap value (peptide array signal) [29]: 0.3368; Array Heatmap value (peptide array signal) [30]: 0.3451; Array Heatmap value (peptide array signal) [31]: 0.4231
2 | H3K14ac (1-32): H3 1-32 | 0.6762 | 0.6129 | 0.5867 | 0.2609 | 0.5563 | 0.5844 | 0.3178 | 0.6445 | 0.88 | 0.7332 | 0.5739 | 0.5322 | 0.4742 | 0.4015 | 0.5387 | 0.9008 | 0.5113 | 0.5035 | 0.5315 | 0.5824 | Array Heatmap value (peptide array signal) [21]: 0.4902; Array Heatmap value (peptide array signal) [22]: 0.6065; Array Heatmap value (peptide array signal) [23]: 0.3965; Array Heatmap value (peptide array signal) [24]: 0.6524; Array Heatmap value (peptide array signal) [25]: 0.4771; Array Heatmap value (peptide array signal) [26]: 0.5508; Array Heatmap value (peptide array signal) [27]: 0.5914; Array Heatmap value (peptide array signal) [28]: 0.5901; Array Heatmap value (peptide array signal) [29]: 0.3702; Array Heatmap value (peptide array signal) [30]: 0.4423; Array Heatmap value (peptide array signal) [31]: 0.5612
